In patent publication US10309967B2, “Methods of diagnosing bipolar disorders and screening for therapeutic compounds” (National University Corporation Chiba University, priority 2015, dated 2019):
Entries after “also recorded” stand apart in the source; their conditions may differ.

Tested on: Aco2
Assay: Quantitative PCR of Aco2 mRNA in rat prefrontal cortex and hippocampus after Li or VPA
Type: in vivo
Conditions: normalized to Gapdh; for Aco2 gene expression: relative to control, mean ± SD; for mRNA levels of Aco2: rat prefrontal cortex and hippocampus, chronic (4-weeks) treatment, vs control
Experimental: Real-time quantitative RT-PCR analysis was conducted using an ABI7900HT Fast Real-Time PCR System (Applied Biosystems, Foster City, Calif.) in both human and rat samples. TaqMan probes and primers for the seven genes (ACO1, ACO2, IDH1, IDH2, IDH3A, IDH3B, IDH3G) and GAPDH (an internal control) (Table 11) were TAQMAN® Gene Expression Assays products (Applied Biosystems).
The CSF concentrations of 116 major metabolites from several pathways were measured. […] Male Sprague-Dawley rats (Japan SLC Inc., Shizuoka, Japan) aged 6 weeks old were used in this study. All rats were housed in groups of three per cage in a room maintained at 23° C.±2° C. and 60±10% humidity with a 12/12 hour light/dark cycle (lights on at 7:00 a.m.). The rats were given free access to food and water. Animal care and use were conducted in accordance with the Institutional Guidelines for Animal Care and Use of Otsuka Pharmaceutical Co., Ltd. (Tokushima, Japan). […] The drinking water was replaced twice a week. […] All animals were decapitated on day 30 after CSF sampling, and brain regions (prefrontal cortex, and hippocampus) were dissected rapidly on ice. Metabolomic analyses of rat CSF samples were performed as described herein.
Prefrontal cortex, and hippocampus were dissected rapidly on ice and stored in RNA later (Applied Biosystems) at 4° C. until used for RNA isolation, cDNA synthesis and polymerase chain reaction (PCR) amplification. The total RNA was extracted using the RNeasy Lipid Tissue Mini Kit (QIAGEN) following the instructions of manufacturer. RNA yield and integrity was assessed using Nanodrop (NanoDrop Technologies). Reverse transcription of total RNA was done using the […] VILO cDNA Synthesis Kit (Invitrogen). In the quantitative PCR, the cDNA was amplified using commercial TaqMan assays (Applied Biosystems) for rat Idh3A (Rn00586270_m1), Idh3B (Rn00504589_g1), Aco1 (Rn00569045_m1), Aco2 (Rn00577876_m1) and Gapdh (Rn01775763_g1) with an ABI 7500 Fast Real-Time PCR system (Applied Biosystems). (Table 17) Reactions were performed in triplicates. All reactions were normalized to Gapdh and presented as relative expression changes compared to control.

With `O=C([O-])[O-].[Li+].[Li+]` [Li, lithium carbonate] the Aco2 gene expression (rat hippocampus) was 1.1340 ± 0.1248, the “mRNA levels of Aco2” value was “did not alter; also recorded: not altered” and the Aco2 gene expression (rat prefrontal cortex) was 0.9921 ± 0.1576.

In the case of `CCCC(CCC)C(=O)[O-].[Na+]` [VPA, valproic acid sodium salt], the Aco2 gene expression (rat hippocampus) was 1.0358 ± 0.0499, the “mRNA levels of Aco2” value (sodium salt) was “did not alter; also recorded: not altered” and the Aco2 gene expression (rat prefrontal cortex) was 0.9505 ± 0.1596.
